The subject of series [1] is HFF-1 cells. The series can be described thus: Cell viability assay (WST-1) in human fibroblastic cell line. The format is cell-based. How it is done: To conclude with this part of our work on the molecular responsiveness of the “vermellogens,” we decided to substantiate whether the bis-pyridinium core in the compounds would have or not a viologen-like reversible redox behavior. Thus, cyclic voltamograms were recorded for RaH·2Cl (2 mM) in buffered aqueous solutions at pH = 2 (0.05 M H3PO4/NaH2PO4), 7 (0.05 M NaH2PO4/Na2HPO4), and 12 (0.05 M Na2HPO4/Na3PO4). Those shown both the acidic (RaH^2+) and basic (Ra^+) forms of the “red thread” owning non-reversible redox peaks (Figure 1b).
Fibroblast cells (HFF-1; ATTC® SCRC-1041TM) were maintained in Dulbecco’s modified eagle’s medium (DMEM) supplemented with 10% FBS and 1% P/S and kept at 37 °C in a humidified atmosphere containing 5% CO2 until their use. HFF-1 cells were seeded in 96 well-plates at an initial density of 10^4 cells/well and allowed to attach for 24 h at 37 °C. The following day, culture medium was removed, replenished by fresh medium (90 µl) and cells were exposed to different concentration of R aH·2Cl and MV (10 µl; final concentrations 0.01, 0.05, 0.1, 0.5 and 1 mM). Control conditions included cells cultured in culture medium, but in absence of compound. Cells were further incubated for 24 h at 37°C and cell viability was monitored using the tetrazolium salt (WST-1) method.6 Absorbance at 450 nm was measured using a Synergy HTX Plate Reader (Biotek, Winooski, VT, USA) and the percent of cell viability (%) was calculated as follows:
Viability (%) = […]
Where Asample and Anegative control depict those absorbance values measured at 450 nm in presence and in absence of compound, respectively. All conditions were tested by triplicate in two independent experiments. Data were expressed as mean ± standard deviation (SD). Statistical analysis was performed by two-ways and one-way ANOVA with Tukey’s LSD post hoc test using IBM SPSS Statistics version 23. A p ≤ 0.05 was considered statistically significant.
Figure S 138: Compounds tested in WST-1 assay for cell viability.
6 Carballo-Pedrares, N.; Kattar, A.; Concheiro, A.; Alvarez-Lorenzo, C.; Rey-Rico, Niosomes-based gene delivery systems for effective transfection of human mesenchymal stem cells. A. Matter. Sci. Eng. 2021, 18, 112307.
In general terms: Tetrazolium assays rely on reduction of a dye to a coloured formazan, in cell work by metabolically active cells.

Series [2] can be described thus: pKa determination by UV–vis acid–base titrations in water. The format is physicochemical. The note with it: for pKa: aqueous phosphate and carbonate buffers, RH^2+/R^+ or MH^+/M, UV–vis titrations in water, chloride salts; for pKa value (linear fitting of pH against log absorbance ratio): 20 μM chloride salt in NaH2PO4/Na2HPO4, KHCO3/K2CO3 and Na2HPO4/Na2PO4 buffers, supplement. The text has this: Next, in our study of the stimuli-responsiveness of the “vermellogens”, we proceeded to verify the new analogues as pH-based molecular switches, by conducting UV–vis acid–base titrations in water for the compounds Ra–eH·2Cl. All the new “vermellogens” show similar π–π* main absorption bands centered at λ^1max = 366–377 nm at neutral or slightly acidic pH. An increase in the basicity of the solution produces the decrease of the aforementioned bands and the concomitant rise of new absorptions associated with the deprotonated compounds and centered at λ^2max = 460–475 nm. The pKa values obtained by the aforementioned UV–vis titrations for Ra–eH·2Cl are quite similar, showing no dependence on the substituent on the pyridinium N^+ atoms within their structures (Table 1 and Figures S115–S125). Furthermore, to evaluate the effect of the two different pyridinium heterocycles on the observed anomalous pKa’s, two analogues were prepared (Ma–bH·Cl), in which one of these moieties was substituted by a neutral phenyl ring.
4.2. pK a determination for Rb by UV-Vis
Figure S 116: UV-Vis spectra for the titration of R b·2Cl at 20 μM in NaH 2PO4/Na2HPO4, KHCO3/K2CO3 and Na2HPO4/Na2PO4 buffers. On the top right: Absorption of R b+ at λ = 474 nm plotted against pH. pH V (mL) of V (mL) of V (mL) of V (mL) of V (mL) of ABS log[A474-(measured) solution A solution B solution C solution D solution E (474 ARb2+)/(ARb1+- […]
Table S 4: Experimental data obtained for the UV-Vis titration of R b·2Cl at 20 μM in NaH2PO4/Na2HPO4, KHCO3/K2CO3 and Na2HPO4/Na2PO4 buffer. Solution A: 20 μM of R b·2Cl and 0.05 M of NaH2PO4. Solution B: 20 μM of R b·2Cl and 0.05 M of NaHPO4. Solution C: 20 μM of R b·2Cl and 0.05 M of Na2PO4. Solution D: 20 μM of R b·2Cl and 0.05 M of KHCO3. Solution E: 20 μM of R b·2Cl and 0.05 M of […]
4.4. pK a determination for Rc by UV-Vis
Figure S 119: UV-Vis spectra for the titration of R c·2Cl at 20 μM in NaH 2PO4/Na2HPO4, KHCO3/K2CO3 and Na2HPO4/Na2PO4 buffers. On the top right: Absorption of R c+ at λ = 466 nm plotted against pH. pH V (mL) of V (mL) of V (mL) of V (mL) of V (mL) of ABS log[A466-(measured) solution A solution B solution C solution D solution E (466 ARc2+)/(ARc+- […]
Table S 5: Experimental data obtained for the UV-Vis titration of R c·2Cl at 20 μM in NaH2PO4/Na2HPO4, KHCO3/K2CO3 and Na2HPO4/Na2PO4 buffer. Solution A: 20 μM of Rc·2Cl and 0.05 M of NaH2PO4. Solution B: 20 μM of R c·2Cl and 0.05 M of NaHPO4. Solution C: 20 μM of R c·2Cl and 0.05 M of Na2PO4. Solution D: 20 μM of R c·2Cl and 0.05 M of KHCO3. Solution E: 20 μM of R c·2Cl and 0.05 M of […]
4.6. pK a determination for Rd by UV-Vis
Figure S 122: UV-Vis spectra for the titration of R d·2Cl at 20 μM in NaH 2PO4/Na2HPO4, KHCO3/K2CO3 and Na2HPO4/Na2PO4 buffers. On the top right: Absorption of R d+ at λ = 475 nm plotted against pH. pH V (mL) of V (mL) of V (mL) of V (mL) of V (mL) of ABS log[A475-(measured) solution A solution B solution C solution D solution E (475 ARd2+)/(ARd1+- […]
Table S 6: Experimental data obtained for the UV-Vis titration of R d·2Cl at 20 μM in NaH2PO4/Na2HPO4, KHCO3/K2CO3 and Na2HPO4/Na2PO4 buffer. Solution A: 20 μM of R d·2Cl and 0.05 M of NaH2PO4. Solution B: 20 μM of R d·2Cl and 0.05 M of NaHPO4. Solution C: 20 μM of R d·2Cl and 0.05 M of Na2PO4. Solution D: 20 μM of R d·2Cl and 0.05 M of KHCO3. Solution E: 20 μM of R d·2Cl and 0.05 M of […]
4.8. pK a determination for Re by UV-Vis
Figure S 125: UV-Vis spectra for the titration of R e·2Cl at 20 μM in NaH 2PO4/Na2HPO4, KHCO3/K2CO3 and Na2HPO4/Na2PO4 buffers. On the top right: Absorption of R e+ at λ = 460 nm plotted against pH. pH V (mL) of V (mL) of V (mL) of V (mL) of V (mL) of ABS log[A460-(measured) solution A solution B solution C solution D solution E (460 ARe2+)/(ARe1+- […]
Table S 7: Experimental data obtained for the UV-Vis titration of R e·2Cl at 20 μM in NaH2PO4/Na2HPO4, KHCO3/K2CO3 and Na2HPO4/Na2PO4 buffer. Solution A: 20 μM of R e·2Cl and 0.05 M of […]

Series [3] is described as follows: Halide recognition by UV–vis titration in acetonitrile (TBACl). It is filed as binding. The text has this: (§1) Finally, diffraction-grade single crystals for RaH·2Cl could be obtained, with the solid-state structure showing hydrogen bonding between the hydrazone moiety with a chloride counterion and a crystallization water (Figure 1a).[34] Moved by this observation, and other reported evidence regarding the anion binding abilities of this type of hydrazone moieties,[30],[35] we decided to study the ability of the “red thread” RaH^2+ to recognize halide anions in acetonitrile by UV–vis titrations and ^1H-NMR. […] Conversely, the addition of increasing amounts of TBACl/Br to 33–20 μM solutions of RaH·2PF6, led to the absorption bands associated with the free form of RaH^2+ at λmax = 370 nm, decreasing in favor of new bands with a slight shift to λmax = 378 and 370 nm, tentatively assigned to RaH^2+···Cl/Br complexes and with the data fitting appropriately to 1:1 association processes (Ka = (7.03 ± 0.14)·10^4 M^–1 for Cl^–, (1.41 ± 0.07)·10^4 M^–1 for Br^–). […]
(§2) NMR titrations could not be performed due to the precipitation of R aH2+ upon 2 eqv. of the corresponding salt. Spectra were recorded at 0, 0.5, 1, 2 and 4 eq. of the corresponding salt to follow the chemical shift of the […]
(§3) Concentration (μM) Absorbance Residual […]

A short description of series [4]: Halide recognition by UV–vis titration in acetonitrile (TBABr). It is filed as binding.
From the text: as §1, §2, §3

Series [5] in a line: Halide recognition in acetonitrile (iodide). The format is binding. As to conditions: UV–vis titrations and 1H-NMR.
From the text: (§4) Finally, diffraction-grade single crystals for RaH·2Cl could be obtained, with the solid-state structure showing hydrogen bonding between the hydrazone moiety with a chloride counterion and a crystallization water (Figure 1a).[34] Moved by this observation, and other reported evidence regarding the anion binding abilities of this type of hydrazone moieties,[30],[35] we decided to study the ability of the “red thread” RaH^2+ to recognize halide anions in acetonitrile by UV–vis titrations and ^1H-NMR. […] Conversely, the addition of increasing amounts of TBACl/Br to 33–20 μM solutions of RaH·2PF6, led to the absorption bands associated with the free form of RaH^2+ at λmax = 370 nm, decreasing in favor of new bands with a slight shift to λmax = 378 and 370 nm, tentatively assigned to RaH^2+···Cl/Br complexes and with the data fitting appropriately to 1:1 association processes (Ka = (7.03 ± 0.14)·10^4 M^–1 for Cl^–, (1.41 ± 0.07)·10^4 M^–1 for Br^–). In both cases, the results agreed with those expected for the recognition through hydrogen bonding between the hydrazone group and the anions, resulting in a bathochromic shift of the absorption band.[30],[35] […]
as §2

Series [6] can be described thus: Fluoride interaction by UV–vis titration in acetonitrile (TBAF). The format is binding. The note with it: 1 μM, 2:1 process.
From the text: as §4, §2

`C[n+]1ccc(-c2cc[n+](C)cc2)cc1` [MV^2+, paraquat, reference compound]: the “decrease of cell survival percentages relative to RaH^2+” value in series [1] (HFF-1, from 0.5 mM) is reported as approximately 3 fold. Besides, the cell survival result in series [1] (HFF-1, from 0.5 mM concentration, 24 h, WST-1) was “severe decrease in cell survival”.

A word on the pKa: it is the pH at which an ionisable group is half protonated. For `C[n+]1ccc(/C=N/Nc2cc[n+](Cc3ccccc3)cc2)cc1` [RdH·2X], the pKa in series [2] came out at 8.6.

Regarding `C[n+]1ccc(/C=N/Nc2cc[n+](C)cc2)cc1` [RaH·2PF6], in series [3], the “Ka (1:1 association with Cl^–)” value was “(7.03 ± 0.14)·10^4 M^–1”. The “Ka (1:1 association with Br^–)” value in series [4] is reported as “(1.41 ± 0.07)·10^4 M^–1”. The “interaction with I^–” value in series [5] is recorded as “no interaction”. In addition, in series [6], the “Ka1 (first F^– equivalent, interaction with hydrazone group)” value was “(4.49 ± 0.77)·10^7 M^–1” and the “Ka2 (deprotonation of the NH assisted by a second fluoride)” value is on record as “(5.43 ± 0.59)·10^7 M^–1”.

As for `C[n+]1ccc(N/N=C/c2cc[n+](Cc3ccccc3)cc2)cc1` [RcH·2X], in series [2], the “pKa value (linear fitting of pH against log absorbance ratio)” value was determined as 8.6 and the pKa amounted to 8.7.

Turning to `C/C(=N\Nc1cc[n+](C)cc1)c1cc[n+](C)cc1` [ReH·2X], in series [2], the pKa was determined as 9.6.

With `C(=N\Nc1cc[n+](Cc2ccccc2)cc1)/c1cc[n+](Cc2ccccc2)cc1` [RbH·2X], in series [2], the “pKa value (linear fitting of pH against log absorbance ratio)” value came to 8.6 and the pKa came out at 8.6.

The record behind these values is article PMC9682480, ““Vermellogens” and the Development of CB[8]-Based Supramolecular Switches Using pH-Responsive and Non-Toxic Viologen Analogues” (Journal of the American Chemical Society, 2022).
